Assays:
Type in all cases: in vivo, human
[1] = test system: patients with PFIC with prior PEBD surgery; assay: PEDFIC 1/2 post hoc subgroup: patients with prior partial external biliary diversion (PEBD)
Description: (§1) One surgical treatment option for patients with PFIC is partial external biliary diversion (PEBD), which can be used to reduce bile acid levels in patients with medically refractory pruritus. However, PEBD is not successful in all patients. […] This post hoc subgroup analysis evaluated the safety and efficacy of odevixibat in patients enrolled in the PEDFIC studies who had PEBD surgery prior to study entry.
(§2) In the double-blind PEDFIC 1 study, children with PFIC1 or PFIC2 were randomized to placebo or 40 or 120 μg/kg/day odevixibat for 24 weeks. In PEDFIC 2, an ongoing, open-label extension study, patients from PEDFIC 1 or newly enrolled patients with any PFIC subtype receive odevixibat 120 μg/kg/day. In both PEDFIC 1 and PEDFIC 2, eligible patients had elevated sBAs and significant pruritus at screening. Changes over time in sBA levels and observer-reported pruritus (range: 0-4; higher scores indicate worse symptoms), sleep parameters, and quality of life (QoL; assessed with the Pediatric Quality of Life Inventory [PedsQL]) were evaluated in the subgroup of patients from PEDFIC 1 and/or PEDFIC 2 with a medical history of PEBD surgery performed prior to study enrollment.

[2] = test system: patients with PFIC with prior PEBD surgery; assay: as above; parameters: key: Y: sBAs reduced ≥70% or levels ≤70 μmol/L at last assesment; N, no; conditions: Patient 10 (prior PEBD, PFIC2; PEDFIC 2 only, 120 μg/kg/d; 35 weeks exposure)
Description: as §1, §2

[3] = test system: patients with PFIC with prior PEBD surgery; assay: as above; parameters: key: Y: sBAs ≤70 μmol/L or reduced ≥70% at last assessment; N, no
Description: as §1, §2

children with PFIC = assay: Pooled PEDFIC 1/2 subgroup analysis by concomitant UDCA and/or rifampicin; conditions: for patients meeting criteria for serum bile acid response: after 48 weeks; for mean proportion of positive pruritus assessments (PPAs): over 48 weeks
Description: Methods: In the double-blind PEDFIC 1 study, children with PFIC1 or PFIC2 were randomized to placebo or odevixibat 40 or 120 μg/kg/day for 24 weeks. In PEDFIC 2, an ongoing, open label extension study, patients from PEDFIC 1 or new patients with any PFIC subtype received odevixibat 120 μg/kg/day. Concomitant UDCA and/or rifampicin were allowed if the patient was on a stable dose. This pooled analysis includes up to 48 weeks of odevixibat treatment from PEDFIC 1 and through the PEDFIC 2 interim data cut (37 weeks; range: 1-108 weeks). Pre-specified subgroup analyses evaluated the following outcomes based on use of UDCA and/or rifampicin: serum bile acid response (i.e., ≥70% reduction from baseline or serum bile acid levels ≤70 μmol/L after 48 weeks), proportion of positive pruritus assessments (PPAs) at the patient level (i.e., scratching score ≤1 or a ≥1-point drop from baseline on the validated PRUCISION instrument) over the 48-week treatment period, and treatment-emergent adverse events (TEAEs).

[4] = Patient 1 (prior PEBD, PFIC2; PEDFIC 1 placebo, PEDFIC 2 120 μg/kg/d; 42 weeks exposure)
[5] = Patient 2 (prior PEBD, PFIC1; PEDFIC 1 placebo, PEDFIC 2 120 μg/kg/d; 35 weeks exposure)
[6] = Patient 3 (prior PEBD, PFIC1; PEDFIC 1 40 μg/kg/d, PEDFIC 2 120 μg/kg/d; 44 weeks exposure)
[7] = Patient 4 (prior PEBD, PFIC1; PEDFIC 1 40 μg/kg/d, PEDFIC 2 120 μg/kg/d; 55 weeks exposure)
[8] = Patient 5 (prior PEBD, PFIC2; 120 μg/kg/d in PEDFIC 1 and 2; 53 weeks exposure)
[9] = Patient 6 (prior PEBD, PFIC2; 120 μg/kg/d in PEDFIC 1 and 2; 44 weeks exposure)
[10] = Patient 7 (prior PEBD, PFIC2; 120 μg/kg/d in PEDFIC 1 and 2; 54 weeks exposure, discontinued)
[11] = Patient 8 (prior PEBD, PFIC1; 120 μg/kg/d in PEDFIC 1 and 2; 47 weeks exposure)
[12] = Patient 9 (prior PEBD, PFIC1; PEDFIC 2 only, 120 μg/kg/d; 25 weeks exposure)
[13] = of 10 patients with prior PEBD surgery
[14] = patients not using UDCA and/or rifampicin
[15] = patients using UDCA and/or rifampicin

Structure (SMILES): CCCCC1(CCCC)CN(c2ccccc2)c2cc(SC)c(OCC(=O)N[C@@H](C(=O)N[C@@H](CC)C(=O)O)c3ccc(O)cc3)cc2S(=O)(=O)N1 [Odevixibat, 1,1-dioxo-3,3-dibutyl-5-phenyl-7-methylthio-8-(N-{(R)-α-[N-((S)-1-carboxypropyl)carbamoyl]-4-hydroxybenzyl}carbamoylmethoxy)-2,3,4,5-tetrahydro-1,2,5-benzothiadiazepine]
- Pruritus Responder? [1, 4]: N (N, no)
- Change From Baseline in Pruritus Score ([1]; Patient 1 (prior PEBD, PFIC2; PEDFIC 1 placebo, PEDFIC 2 120 μg/kg/d; 42 weeks exposure), baseline 1.9): 0.1
- Change From Baseline in sBAs ([1]; Patient 1 (prior PEBD, PFIC2; PEDFIC 1 placebo, PEDFIC 2 120 μg/kg/d; 42 weeks exposure), baseline 172): -18 µmol/L
- Pruritus Responder? [1, 5]: N (N, no)
- Change From Baseline in Pruritus Score ([1]; Patient 2 (prior PEBD, PFIC1; PEDFIC 1 placebo, PEDFIC 2 120 μg/kg/d; 35 weeks exposure), baseline 3.8): −0.9
- Change From Baseline in sBAs ([1]; Patient 2 (prior PEBD, PFIC1; PEDFIC 1 placebo, PEDFIC 2 120 μg/kg/d; 35 weeks exposure), baseline 225): -69.5 µmol/L
- Pruritus Responder? [1, 6]: Y (≥1-point drop in pruritus score at last assessment)
- Change From Baseline in Pruritus Score ([1]; Patient 3 (prior PEBD, PFIC1; PEDFIC 1 40 μg/kg/d, PEDFIC 2 120 μg/kg/d; 44 weeks exposure), baseline 3.0): −2.1
- Change From Baseline in sBAs ([1]; Patient 3 (prior PEBD, PFIC1; PEDFIC 1 40 μg/kg/d, PEDFIC 2 120 μg/kg/d; 44 weeks exposure), baseline 193): 197 µmol/L
- Pruritus Responder? [1, 7]: Y (≥1-point drop in pruritus score at last assessment)
- Change From Baseline in Pruritus Score ([1]; Patient 4 (prior PEBD, PFIC1; PEDFIC 1 40 μg/kg/d, PEDFIC 2 120 μg/kg/d; 55 weeks exposure), baseline 3.0): −1.5
- Change From Baseline in sBAs ([1]; Patient 4 (prior PEBD, PFIC1; PEDFIC 1 40 μg/kg/d, PEDFIC 2 120 μg/kg/d; 55 weeks exposure), baseline 163): -53.5 µmol/L
- Pruritus Responder? [1, 8]: N (N, no)
- Change From Baseline in Pruritus Score ([1]; Patient 5 (prior PEBD, PFIC2; 120 μg/kg/d in PEDFIC 1 and 2; 53 weeks exposure), baseline 2.8): 0.3
- Change From Baseline in sBAs ([1]; Patient 5 (prior PEBD, PFIC2; 120 μg/kg/d in PEDFIC 1 and 2; 53 weeks exposure), baseline 156.5): -11.5 µmol/L
- Pruritus Responder? [1, 9]: N (N, no)
- Change From Baseline in Pruritus Score ([1]; Patient 6 (prior PEBD, PFIC2; 120 μg/kg/d in PEDFIC 1 and 2; 44 weeks exposure), baseline 3.0): 0.0
- Change From Baseline in sBAs ([1]; Patient 6 (prior PEBD, PFIC2; 120 μg/kg/d in PEDFIC 1 and 2; 44 weeks exposure), baseline 237): 103 µmol/L
- Pruritus Responder? [1, 10]: N (N, no)
- Change From Baseline in Pruritus Score ([1]; Patient 7 (prior PEBD, PFIC2; 120 μg/kg/d in PEDFIC 1 and 2; 54 weeks exposure, discontinued), baseline 2.9): −0.3
- Change From Baseline in sBAs ([1]; Patient 7 (prior PEBD, PFIC2; 120 μg/kg/d in PEDFIC 1 and 2; 54 weeks exposure, discontinued), baseline 208): 178 µmol/L
- Pruritus Responder? [1, 11]: Y (≥1-point drop in pruritus score at last assessment)
- Change From Baseline in Pruritus Score ([1]; Patient 8 (prior PEBD, PFIC1; 120 μg/kg/d in PEDFIC 1 and 2; 47 weeks exposure), baseline 2.0): −2.1
- Change From Baseline in sBAs ([1]; Patient 8 (prior PEBD, PFIC1; 120 μg/kg/d in PEDFIC 1 and 2; 47 weeks exposure), baseline 188.5): 61.5 µmol/L
- Pruritus Responder? [1, 12]: N (N, no)
- Change From Baseline in Pruritus Score ([1]; Patient 9 (prior PEBD, PFIC1; PEDFIC 2 only, 120 μg/kg/d; 25 weeks exposure), baseline 2.0): −0.5
- Change From Baseline in sBAs ([1]; Patient 9 (prior PEBD, PFIC1; PEDFIC 2 only, 120 μg/kg/d; 25 weeks exposure), baseline 139.5): 8.5 µmol/L
- Pruritus Responder? ([1]; Patient 10 (prior PEBD, PFIC2; PEDFIC 2 only, 120 μg/kg/d; 35 weeks exposure)): Y (≥1-point drop in pruritus score at last assessment)
- Change From Baseline in Pruritus Score ([1]; Patient 10 (prior PEBD, PFIC2; PEDFIC 2 only, 120 μg/kg/d; 35 weeks exposure), baseline 2.5): −1.5
- Change From Baseline in sBAs ([1]; Patient 10 (prior PEBD, PFIC2; PEDFIC 2 only, 120 μg/kg/d; 35 weeks exposure), baseline 79.5): -70.5 µmol/L
- patients who met criteria for pruritus response (≥1-point drop) [1, 13]: 4 patients
- patients with reductions in pruritus score [1, 13]: 7 patients
- patients with reductions in sBA levels [1, 13]: 5 patients
- patients who met criteria for sBA response (reduced by ≥70% or ≤70 μmol/L) ([1]; of 10 patients with prior PEBD surgery, last assessment): 1 patient
- patients with improved observer-reported PedsQL total scores ([1]; of the 9 prior-PEBD patients with post-baseline QoL assessments): 6 patients
- tolerability ([1]; patients with prior PEBD surgery): generally well tolerated
- patients with TEAEs ([1]; prior PEBD subgroup, 9 of 10 patients, all mild to moderate): 90%
- sBA Responder? [2]: Y
- sBA Responder? [3, 4]: N
- sBA Responder? [3, 5]: N
- sBA Responder? [3, 6]: N
- sBA Responder? [3, 7]: N
- sBA Responder? [3, 8]: N
- sBA Responder? [3, 9]: N
- sBA Responder? [3, 10]: N
- sBA Responder? [3, 11]: N
- sBA Responder? [3, 12]: N
- patients meeting criteria for serum bile acid response (children with PFIC; patients not using UDCA): 40%
- patients meeting criteria for serum bile acid response (children with PFIC; [14]): 67%
- patients meeting criteria for serum bile acid response (children with PFIC; patients not using rifampicin): 82%
- patients meeting criteria for serum bile acid response (children with PFIC; patients using UDCA): 74%
- patients meeting criteria for serum bile acid response (children with PFIC; [15]): 67%
- patients meeting criteria for serum bile acid response (children with PFIC; patients using rifampicin): 54%
- mean proportion of positive pruritus assessments (PPAs) (children with PFIC; patients not using UDCA): 72%
- mean proportion of positive pruritus assessments (PPAs) (children with PFIC; [14]): 69%
- mean proportion of positive pruritus assessments (PPAs) (children with PFIC; patients not using rifampicin): 81%
- mean proportion of positive pruritus assessments (PPAs) (children with PFIC; patients using UDCA): 65%
- mean proportion of positive pruritus assessments (PPAs) (children with PFIC; [15]): 66%
- mean proportion of positive pruritus assessments (PPAs) (children with PFIC; patients using rifampicin): 56%
- incidence of TEAEs (children with PFIC; patients not using UDCA): 87%
- incidence of TEAEs (children with PFIC; [14]): 90%
- incidence of TEAEs (children with PFIC; patients not using rifampicin): 86%
- incidence of TEAEs (children with PFIC; patients using UDCA): 77%
- incidence of TEAEs (children with PFIC; [15]): 78%
- incidence of TEAEs (children with PFIC; patients using rifampicin): 75%

— patent US12447156B2, “Treating progressive familial intrahepatic cholestasis (PFIC) with IBAT inhibitors” (ALBIREO AB, priority 2020, dated 2025)
